Measurements as given in patent publication US20140378380A1, “USE OF UNACYLATED GHRELIN, FRAGMENTS AND ANALOGS THEREOF AS ANTIOXIDANT” (Alizé Pharma SAS, priority 2013, published 2014).

What was measured:
[1] = system: C2C12 mouse muscular cell line; test: ROS production (DCF-DA) in C2C12 cells subjected to oxidative stress; format: cell-based; conditions: oxidative stress by hypoxia, AGEs, hyperglycemia or H2O2; 1 μmol/L
Protocol: Kinetic analysis of ROS production was evaluated by using DCF-DA (5-(and-6)-carboxy-2′,7′-dichlorofluorescein diacetate, 0.5 μmol/L final concentration) (Molecular Probe, Invitrogen) assay. C2C12 cells were cultured with 400 μg/ml Advanced Glycated End-product (AGE) or 25 mM glucose (high glucose HG) for 48 h, H2O2 (100 μM) for 2 h. In parallel experiments C2C12 cells were subjected to hypoxia (DMEM+2% FCS in a 5% CO2-95% N2 humidified atmosphere, yielding to 1% O2 concentrations for 24 h). UAG (1 μmol/L) AZP 531 (1 μmol/L) or AZP-502 (1 μmol/L) was added where indicated.

healthy volunteers = conditions: administered concomitantly in healthy volunteers; cited from earlier work
GH secretion = conditions: cited from earlier work
satellite cells (SCs) = test: SCs recovered from ischemic muscles of treated mice (count, Western blot, DCF-DA, qRT-PCR); format: in vivo
Protocol: (§1) Male C57BL/6J mice (Charles River Lab., Wilmington, Mass., USA) were anesthetized and unilateral hind limb ischemia was induced as described^42. The normo-perfused contralateral limb of each mouse was used as an internal control. After hind-limb ischemia, animals (18 mice per group) were treated by intra-peritoneal injection daily from 0 to day 21 with either saline, AG ([…]) or UAG ([…]). In selected experiments, mice received intramuscular injections of pre-miR oligonucleotides (5 mice/group). To induce toxic damage, 100 μl of 1% barium chloride (BaCl2, Sigma Aldrich) was injected unilaterally into the hind limb (9 mice). Mice were treated according to European Guidelines and policies as approved by the University of Turin Ethical Committee.
(§2) SCs were isolated from gastrocnemius muscles of C57BL/6J wild type mice subjected to ischemia or C57BL/6J mice lacking the GHSR1a and ghrelin genes (10 mice, kind gift of Professor M. Tschöp)^39. To obtain SCs, muscle samples were subjected to enzymatic digestion as described^45. In selected experiments, SCs were recovered from normo-perfused muscles and subjected to in-vitro ischemia in presence of saline, AG (1 μmol/L) or UAG (1 μmol/L). In-vitro ischemia was induced by incubating cells in DMEM+2% FCS at 5% CO2/95% N2 humidified atmosphere, yielding 1% O2 concentrations for 24 h^18. The in-vitro ischemia was also performed in the presence of SB202190 (1 μmol/L).
(§3) Cells were lysed and protein detection was obtained as previously described^47. Cells were lysed (50 mmol/L Tris HCl [pH 8.3], 1% Triton X-100, 10 mmol/L PMSF, 100 U/ml aprotinin, 10 μmol/L leupeptin) and protein concentrations were obtained as previously described^47. […] Densitometric analysis was used to calculate the differences in the fold induction of protein levels and normalized to tubulin, a actin or p38MAPK content. Values are reported as relative amount
(§4) Intracellular ROS production was evaluated using DCF-DA (5-(and-6)-carboxy-2′,7′-dichlorofluorescein diacetate, […] final concentration) (Molecular Probe, Invitrogen) assay as previously described^23. The formation of TBARS was determined in muscles using the OXI-TEK kit (ZeptoMetrix Corp.) and a luminescence spectrometer (Bio-Rad Laboratories, Hercules, Calif.) with excitation set at 530 nm, emission at 550 nm to measure in-vivo oxidative stress levels^33.
(§5) Total RNA was isolated using TRIzol reagent (Invitrogen) from SCs recovered from muscles of treated animals or from SCs subjected to in-vitro ischemia. miR-221/222 expression was evaluated by qRT-PCR as previously described^48. Loss-of-function experiments were performed in SCs transfected for 48 h with anti-miRNA negative control, anti-miR-221/222 antagonists (Applied Biosystem, Foxter Cyto CA, USA), according to the manufacturer's instructions^48.

[2] = system: endothelial progenitor cells (EPCs); conditions: cited from earlier work
SCs from double KO mice = SCs from double KO mice (lacking GHSR1a and ghrelin genes) subjected to in vitro ischemia; format: cell-based
Protocol: as §2
(§6) SC cell-cycle progression was evaluated by evaluating the percentage of PCNA-positive cells or by FACS analysis as previously described^46. The percentage of cells in each cell cycle phase was determined by ModFit LT software (Verity Software House. Inc, topsham, ME, USA). Celss proliferation was also assayed by evaluating the percentage of PCNA-positive cells by FACS analysis.
as §3, §4

C57BL/6J mice [3] = test: Murine hind-limb ischemia model (foot damage score, histology, IF, TBARS); format: in vivo
Protocol: as §1
Semiquantitative estimation (by repeated measures analyzed with ANOVA and Newman-Keuls Multiple Comparison test) of foot damage was performed serially using the following classification: 3=dragging of foot (foot necrosis), 2=no dragging but no plantar flexion (foot damage), 1=plantar flexion but no toe flexion (toe damage), and 0=flexing the toes to resist gentle traction on the tail (no damage)^43.
(§7) Gastrocnemius muscle sections from ischemic or normo-perfused limbs were stained with hematoxylin and eosin for histological analysis. The proportion of fibers with central nuclei (regenerating fibers) was measured by MetaMorph software (Life Sciences Research Imaging Systems) in the injured area and the cross-sectional areas of the fibers in the injured and non-injured areas. For IF analysis, muscle sections were processed as described previously^44. The number of cells expressing the indicated markers or CD31 positive vessels was evaluated as previously described^34.
as §4

primary SCs = test: Primary SCs from normo-perfused muscles subjected to in vitro ischemia; format: cell-based, mice
Protocol: as §2, §6, §3, §4, §5
To obtain SOD-2 inactivation, SCs were transiently transfected with siRNA for SOD-2 or with duplex siRNAs (Qiagen, Valencia, Calif., USA) as previously described^44. Transfection was performed according to the manufacturer's instructions. Whole cell extracts were processed 48 h after transfection. Cell viability was evaluated at the end of each experiment. […]

GHSR-1a = GHSR-1a (Homo sapiens, UniProt Q92847); conditions: cited from earlier work
C57BL/6J mice [4] = test: Toxic damage induced by 1% barium chloride (BaCl2) in gastrocnemius muscle; format: in vivo; conditions: 1% BaCl2 injected into hind limb
Protocol: as §1, §7

[5] = SOD-2 silenced using siRNA, in vitro ischemia
[6] = in vitro ischemia 1% O2 24 h, 1 μmol/L

Chain of GHSR-1a (Q92847 whole entry): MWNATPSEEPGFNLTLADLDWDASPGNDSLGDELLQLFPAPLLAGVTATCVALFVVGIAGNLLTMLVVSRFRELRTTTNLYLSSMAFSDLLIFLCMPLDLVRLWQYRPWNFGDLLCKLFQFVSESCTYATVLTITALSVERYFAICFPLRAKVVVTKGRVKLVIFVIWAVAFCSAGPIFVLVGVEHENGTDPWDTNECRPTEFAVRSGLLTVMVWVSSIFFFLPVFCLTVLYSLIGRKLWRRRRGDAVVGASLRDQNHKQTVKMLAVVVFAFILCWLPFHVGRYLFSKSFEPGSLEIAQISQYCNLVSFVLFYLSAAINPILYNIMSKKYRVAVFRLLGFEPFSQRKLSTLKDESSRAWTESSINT

Gly-Ser-Ser-Phe-Leu-Ser-Pro-Glu-His-Gln-Arg-Val-Gln-Gln-Arg-Lys-Glu-Ser-Lys-Lys-Pro-Pro-Ala-Lys-Leu-Gln-Pro-Arg (GSSFLSPEHQRVQQRKESKKPPAKLQPR; listed as Homo sapiens) [UAG]
protective effect on C2C12 cells against oxidative stress [1]: have a protective effect
hyperglycemic effects of ghrelin (healthy volunteers): prevent the hyperglycemic effects of ghrelin
effect on GH secretion (GH secretion): no physiological effect on GH secretion
ROS production in SCs from treated mice (satellite cells (SCs); DCF-DA assay): lower
levels of phospho(p)-p38/MAPK protein in SCs (satellite cells (SCs); SCs from treated mice, Western blot): found to be higher
SOD-2 protein expression in SCs from treated mice (satellite cells (SCs); Western blot): higher
levels of p57kip2 protein in SCs from treated mice (satellite cells (SCs); Western blot): reduced
number of Pax-7/MyoD/Myf5+ SCs isolated and counted ex vivo (satellite cells (SCs); ischemic muscles of treated mice): significantly increased number
expression of miR-221 and miR-222 in SCs recovered from muscles of treated mice (satellite cells (SCs); qRT-PCR, compared to controls): significantly increased
protection of EPCs from oxidative stress (ROS generation) [2]: only UAG protects endothelial progenitor cells (EPCs) from oxidative stress
SC cell-cycle progression (SCs from double KO mice): only UAG promoted SC cell-cycle progression
SOD-2 expression (SCs from double KO mice): induced SOD-2 expression
p-p38/MAPK, Pax-7, MyoD, Myf5 and myogenin expression (SCs from double KO mice): induced
protection of SCs from ROS generation (SCs from double KO mice; DCF-DA): protected SCs from ROS generation
number of Pax-7/MyoD+ cells in ischemic muscles (C57BL/6J mice [3]; day 7): increased number of Pax-7/MyoD+ cells
Pax-7/MyoD+ cells in ischemic muscles (C57BL/6J mice [3]; day 21): scattered Pax-7/MyoD+ cells were still present
number of SOD-2/Pax-7+ cells in ischemic muscle (C57BL/6J mice [3]; double immunostaining, day 7): increased number of SOD-2/Pax-7+ cells
number of CD68-positive inflammatory cells (C57BL/6J mice [3]; ischemic muscle): reduced number of CD68-positive inflammatory cells
number of regenerating myofibers in gastrocnemius muscles (C57BL/6J mice [3]; ischemic muscle): increased number of regenerating myofibers
number of myogenin-positive cells in ischemic muscles (C57BL/6J mice [3]; ischemic muscles): increased number of myogenin-positive cells
number of functional vessels in ischemic muscles (C57BL/6J mice [3]; ischemic muscles, compared to the other groups): larger number of functional vessels
capillary density, ischemic vs contralateral control muscle of the same animals (C57BL/6J mice [3]; ischemic vs normo-perfused muscle): no such differences were observed
protection against ischemia-induced damage (in vivo effects) (C57BL/6J mice [3]; overall conclusion): appears to protect against ischemia-induced damage
foot damage (functional score) (C57BL/6J mice [3]; unilateral hind-limb ischemia, i.p. daily from day 0 to day 21, vs saline): damage was significantly higher in saline- and AG-treated groups than in the UAG-treated group
cell-cycle entry or expression of SOD-2, Pax-7, MyoD, or myogenin (primary SCs; SCs transfected with anti-miR-221/222 antago-miRs (data not shown)): no longer had any effect
p-p38/MAPK levels (primary SCs; SCs transfected with anti-miR-221/222 antago-miRs, UAG (data not shown)): p-p38/MAPK levels were reduced
UAG-induced miR-221/222 expression (primary SCs; SOD-2 knock-down, in vitro ischemia): prevents UAG-induced miR-221/222 expression
cell-cycle progression (primary SCs; [5]): did not undergo cell-cycle progression
p38/MAPK phosphorylation (primary SCs; [5]): did not induce p38/MAPK phosphorylation
protection of SCs against ROS generation (primary SCs; [5]): did not protect SCs against ROS generation
expression of Pax-7, MyoD (primary SCs; [6]): induced expression
expression of myogenin (primary SCs; [6]): induced expression
levels of pp38/MAPK (primary SCs; [6]): increased levels
ROS production (primary SCs; in vitro ischemia, DCF-DA): ROS production was decreased
PCNA expression (primary SCs; in vitro ischemia, FACS): increased PCNA expression
number of cells in S phase (primary SCs; in vitro ischemia, FACS): increased
SOD-2 expression (primary SCs; in vitro ischemia, Western blot): SOD-2 expression increased
binding to GHSR-1a (GHSR-1a): fails to bind
regeneration of skeletal muscle after BaCl2 (ROS-independent damage) (C57BL/6J mice [4]): regeneration of skeletal muscle was no longer observed
